{"source": "patent US4190666A", "about": "“Anti-inflammatory 4,5-diarly-2-(substituted-thio)imidazoles and their corresponding sulfoxides and sulfones” (E. I. Du Pont de Nemours and Company, priority 1978, dated 1980)", "key": {"[1]": {"tested_on": "immunologic reactions / rheumatoid arthritis", "settings": "background; cited from earlier work"}, "[2]": {"tested_on": "B lymphocytes in spleen cell suspensions", "settings": "for effect on B lymphocyte proportion / lymphocyte population: arthritic rats"}, "[3]": {"tested_on": "established adjuvant-induced arthritis in rats", "experiment": "Established adjuvant-induced arthritis in rats (therapeutic, paw volume)", "format": "in vivo, Charles River Lewis male rats", "settings": "Rattus norvegicus"}, "[4]": {"tested_on": "non-established adjuvant-induced arthritis in rats", "experiment": "Non-established adjuvant-induced arthritis in rats (prevention of development, paw volume)", "format": "in vivo, Charles River Lewis male rats", "settings": "for ED50: Rattus norvegicus, read-out: ED50% non-established arthritis; for effectiveness in preventing development of arthritis compared with treating established arthritis: non-established vs established arthritis, rats", "method": "Non-Established Adjuvant-Induces Arthritis in Rats\nA test used primarily to determine the effects of compounds on the immunological reactions involved in the induction process and to prevent the development of arthritis.\nCharles River Lewis male rats (130-150 grams) are injected subcutaneously in the plantar area of the right hind paw with 0.1 ml of adjuvant (Difco heat-killed, lyophilized Mycobacterium butyricum suspended in mineral oil 5 mg/ml). 40 Non-arthritic controls are injected with mineral oil. Groups of 20 rats are given single, daily oral doses of compound (in PVA-Acacia vehicle, 10 ml/kg) or vehicle by gavage beginning immediately following paw injection for a total of 14 doses. The paw volume of the uninjected (left) hind paw is measured 24 hours after the last dose using a Ugo Basile Volume differential meter Model 7101. The ED50% decrease from control is determined as described above."}, "[5]": {"tested_on": "plaque forming (antibody producing) spleen cells of rats with adjuvant-induced arthritis", "experiment": "Modified Jerne spleen cell hemolytic plaque assay", "format": "in vivo, rats (Charles River Lewis)", "settings": "for effect on number of plaque forming cells (PFC): arthritic rats", "method": "MODIFIED JERNE SPLEEN CELL HEMOLYTIC PLAQUE ASSAY\nA modification of the technique described by N. K. Jerne and A. A. Nordin (Science, 140, 450, 1963) was used in these studies. Rats (Charles River Lewis) with adjuvant-induced arthritis (and non-arthritic controls) were dosed orally ounce per day with PVA-Acacia vehicle* or compounds in vehicle from day 14 (following adjuvant injection) to day 20. The animals were sensitized with sheep red blood cells (SRBC) (0.2 ml of a 10% suspension=[…]) I.V. on day 17. The SRBC (Microbiological Associates) were washed 3 times in 0.9% sodium chloride solution prior to injection. On day 21 the rats were anesthetized with 1% sodium pentobarbital I.P. and the spleens were removed. Each spleen was placed on a stainless steel screen suspended over a plastic beaker in an ice bath and gently macerated with a glass syringe plunger. The cells were washed through the mesh into the beaker using a pasteur pipette to apply about 10 ml of Eagle's Minimal Essential Medium (MEM) during the maceration process until only fibrous material remained on the screen. Large particles were allowed to settle out for about 5 minutes and about 5 ml of supernatant was transferred to a plastic tube. Dilutions of 1:10 and 1:20 were made in cold MEM.\nPlating: 2 ml of 0.7% Agarose (1.4% diluted 1:2 with 2X Eagles MEM) and 0.2 ml of a 10% SRBC suspension were pre-warmed in a 45° C. water bath. 20 Lambda of spleen cell dilution were added, mixed gently and poured into a supporting layer of 2 ml of 1.4% Agarose in a 60×15 mm plastic petri plate. Plates were incubated at 37° C. for 1.5 hours in a humidified incubator. 1.5 ml of guinea pig complement (diluted 1:10 with MEM) was added and incubation was continued for 1 hour longer.\nZones of hemolysis (plaques) per plate were counted without magnification against a diffuse light source. Assuming each plaque to have resulted from hemolysin produced by a single spleen cell, the number of plaque forming cells (PFC) per million spleen cells was calculated for each dilution. The statistical calculations (mean, standard error and \"t\" test) included the PFC/million count for each dilution of each spleen."}, "[6]": {"settings": "po, Table V, read-out: ED50% established arthritis"}, "[7]": {"settings": "Table V, oral, 14 daily doses from adjuvant injection"}, "[8]": {"settings": "po, established arthritis, 7 daily doses, ED50% decrease from control paw volume, Tables I-III, read-out: Adjuvant Arthritis (ED50%)"}}, "note": "Where two headings read alike, the source gives them in different places.", "data": [{"compound": "O=P1(N(CCCl)CCCl)NCCCO1", "note": "(stereo not drawn) [Cyclophosphamide, reference compound]", "values": [{"measurement": "effectiveness in treatment of rheumatoid arthritis", "setting": "[1]", "value": "effective in the treatment of rheumatoid arthritis"}, {"measurement": "toxicity for wide-spread use", "setting": "[1]", "value": "too toxic for wide-spread use"}, {"measurement": "effect on B lymphocyte proportion / lymphocyte population", "setting": "[2]", "value": "reduced the B lymphocyte proportion to below normal"}, {"measurement": "mean % B cells", "setting": "[2]; daily oral dose 5 mg/kg", "value": 25, "unit": "%"}, {"measurement": "ED50", "setting": "[3]; [6]", "value": 10, "unit": "mg/kg"}, {"measurement": "ED50", "setting": "[4]; [7]", "value": 1.5, "unit": "mg/kg"}, {"measurement": "effectiveness in preventing development of arthritis compared with treating established arthritis", "setting": "[4]", "value": "more effective in preventing the development of arthritis in rats than in treating established arthritis in rats"}, {"measurement": "effect on number of plaque forming cells (PFC)", "setting": "[5]", "value": "reduced the PFC far below normal"}, {"measurement": "mean plaque forming cells per million spleen cells (N = 20)", "setting": "[5]; daily oral dose 5.0 mg/kg", "value": "25 cells per million spleen cells"}]}, {"compound": "CC(=O)Oc1ccccc1C(=O)O", "note": "[aspirin]", "values": [{"measurement": "effect on immunologic reactions in rheumatoid inflammation", "setting": "[1]", "value": "have no effect on these immunologic reactions"}]}, {"compound": "CCCCC1C(=O)N(c2ccccc2)N(c2ccccc2)C1=O", "note": "[Phenylbutazone]", "values": [{"measurement": "effect on immunologic reactions in rheumatoid inflammation", "setting": "[1]", "value": "have no effect on these immunologic reactions"}, {"measurement": "mean % B cells", "setting": "[2]; daily oral dose 20 mg/kg", "value": 53, "unit": "%"}, {"measurement": "ED50", "setting": "[3]; [6]", "value": 10, "unit": "mg/kg"}, {"measurement": "ED50", "setting": "[4]; [7]", "value": 35, "unit": "mg/kg"}, {"measurement": "effectiveness in preventing development of arthritis compared with treating established arthritis", "setting": "[4]", "value": "less effective in preventing the development of arthritis in rats than in treating the inflammation in established arthritis"}]}, {"compound": "COc1ccc2c(c1)c(CC(=O)O)c(C)n2C(=O)c1ccc(Cl)cc1", "note": "[Indomethacin, reference compound]", "values": [{"measurement": "effect on immunologic reactions in rheumatoid inflammation", "setting": "[1]", "value": "have no effect on these immunologic reactions"}, {"measurement": "effect on B lymphocyte proportion / lymphocyte population", "setting": "[2]", "value": "had no effect on the lymphocyte population"}, {"measurement": "mean % B cells", "setting": "[2]; daily oral dose 0.5 mg/kg", "value": 57, "unit": "%"}, {"measurement": "ED50", "setting": "[3]; Table V, oral, read-out: ED50% established arthritis", "value": 0.3, "unit": "mg/kg"}, {"measurement": "ED50", "setting": "[4]; po", "value": 3, "unit": "mg/kg"}, {"measurement": "effectiveness in preventing development of arthritis compared with treating established arthritis", "setting": "[4]", "value": "less effective in preventing the development of arthritis in rats than in treating the inflammation in established arthritis"}, {"measurement": "effect on number of plaque forming cells (PFC)", "setting": "[5]", "value": "had no effect on the number of PFC"}, {"measurement": "mean plaque forming cells per million spleen cells (N = 20)", "setting": "[5]; daily oral dose 1.0 mg/kg", "value": "694 cells per million spleen cells"}]}, {"compound": "FC(F)C(F)(F)Sc1nc(-c2ccccc2)c(-c2ccccc2)[nH]1", "note": "[Example 18, 4,5-Diphenyl-2-(1,1,2,2-tetrafluoroethylthio)imidazole]", "values": [{"measurement": "mean % B cells", "setting": "[2]; daily oral dose 1.5 mg/kg, pooled data from 2 experiments (N = 10)", "value": 37, "unit": "%"}, {"measurement": "mean % B cells", "setting": "[2]; daily oral dose 15 mg/kg, pooled data from 2 experiments (N = 10)", "value": 34, "unit": "%"}, {"measurement": "ED50", "setting": "[3]; [6]", "value": 0.75, "unit": "mg/kg"}, {"measurement": "ED50", "setting": "[3]; [8]", "value": 0.75, "unit": "mg/kg"}, {"measurement": "ED50", "setting": "[4]; [7]", "value": 2.3, "unit": "mg/kg"}, {"measurement": "mean plaque forming cells per million spleen cells (N = 20)", "setting": "[5]; daily oral dose 1.5 mg/kg", "value": "197 cells per million spleen cells"}, {"measurement": "mean plaque forming cells per million spleen cells (N = 20)", "setting": "[5]; daily oral dose 15 mg/kg", "value": "320 cells per million spleen cells"}]}, {"compound": "FC(F)C(F)(F)Sc1nc(-c2ccc(Cl)cc2)c(-c2ccc(Cl)cc2)[nH]1", "note": "[Example 39]", "values": [{"measurement": "mean % B cells", "setting": "[2]; daily oral dose 0.2 mg/kg, pooled data from 2 experiments (N = 10)", "value": 37, "unit": "%"}, {"measurement": "mean % B cells", "setting": "[2]; daily oral dose 2.0 mg/kg, pooled data from 2 experiments (N = 10)", "value": 35, "unit": "%"}, {"measurement": "ED50", "setting": "[3]; [6]", "value": 0.2, "unit": "mg/kg"}, {"measurement": "ED50", "setting": "[3]; [8]", "value": 0.3, "unit": "mg/kg"}, {"measurement": "ED50", "setting": "[4]; [7]", "value": 0.06, "unit": "mg/kg"}, {"measurement": "mean plaque forming cells per million spleen cells (N = 20)", "setting": "[5]; daily oral dose 0.1 mg/kg", "value": "788 cells per million spleen cells"}, {"measurement": "mean plaque forming cells per million spleen cells (N = 20)", "setting": "[5]; daily oral dose 1.0 mg/kg", "value": "488 cells per million spleen cells"}]}, {"compound": "O=S(=O)(c1nc(-c2ccc(F)cc2)c(-c2ccc(F)cc2)[nH]1)C(F)(F)C(F)F", "note": "[Example 71, 4,5-bis(4-fluorophenyl)-2-(1,1,2,2-tetrafluoroethylsulfonyl)imidazole]", "values": [{"measurement": "mean % B cells", "setting": "[2]; daily oral dose 0.03 mg/kg, pooled data from 3 experiments (N = 15)", "value": 38, "unit": "%"}, {"measurement": "mean % B cells", "setting": "[2]; daily oral dose 0.3 mg/kg, pooled data from 3 experiments (N = 15)", "value": 41, "unit": "%"}, {"measurement": "ED50", "setting": "[3]; [6]", "value": 0.03, "unit": "mg/kg"}, {"measurement": "ED50", "setting": "[3]; [8]", "value": 0.025, "unit": "mg/kg"}, {"measurement": "ED50", "setting": "[4]; [7]", "value": 0.03, "unit": "mg/kg"}, {"measurement": "mean plaque forming cells per million spleen cells (N = 20)", "setting": "[5]; daily oral dose 0.03 mg/kg", "value": "499 cells per million spleen cells"}, {"measurement": "mean plaque forming cells per million spleen cells (N = 20)", "setting": "[5]; daily oral dose 0.3 mg/kg", "value": "439 cells per million spleen cells"}]}, {"compound": "CC(C)Cc1ccc(C(C)C(=O)O)cc1", "note": "(stereo not drawn) [ibuprofen]", "values": [{"measurement": "effect on immunologic reactions in rheumatoid inflammation", "setting": "[1]", "value": "have no effect on these immunologic reactions"}]}]}
